Data taken from patent US8691811B2, “Quinazolinone linked pyrrolo[2,1-c][1,4]benzodiazepine hybrids as potential anticancer agents and process for the preparation thereof” (Council of Scientific & Industrial Research, priority 2008, dated 2014).

Assays:
[1] = tested on: sixty human tumour cell lines; assay: NCI in vitro cytotoxicity screen (SRB, 48 h), all cell lines; assay type: cell-based; conditions: 48 h exposure
Experimental: (§1) The C8-linked quinazolinone-PBD hybrid (5d) has been tested against sixty human tumour cell lines derived from nine cancer types (leukemia, non-small cell lung cancer, colon cancer, CNS cancer, melanoma, ovarian cancer, renal cancer, prostate cancer and breast cancer) as per NCI protocol. For each compound, dose response curves for individual cell lines have been measured at a minimum of five concentrations at 10 fold dilutions. A protocol of 48 h continuous drug exposure has been used, and a sulforhodamine B (SRB) protein assay was used to estimate cell viability or growth. The concentration for 50% cell growth inhibition (GI50), total cell growth inhibition (TGI, 0% growth) and 50% cell death (LC50, […]) compared with the control has been calculated (Table-1). Compound 5d has been evaluated for their in vitro cytotoxicity in sixty cell lines from nine human cancer types of lung (Hop-62, NCI-H226, NCI-H522), leukemia (K-562, SR), colon (HCT-116, HCT-15, HCC-2998), CNS(SF-539), melanoma (SK-MEL-5, UACC-62, M14), ovarian (IGROV1), renal (A498), prostate (PC3) breast (BT-549, MDA-MB-435, HS578T) origin. The results are expressed as percent of cell growth determined relative to that of untreated control cells (Table 2). The representative compound 5d has shown significant cytotoxicity against some cancer cell lines.

[2] = tested on: UO-31; assay: NCI cytotoxicity (SRB, 48 h), UO-31; assay type: cell-based, human; conditions: UO-31, renal
Experimental: as §1

[3] = tested on: SF-539; assay: NCI cytotoxicity (SRB, 48 h), SF-539; assay type: cell-based, human; conditions: SF-539, CNS
Experimental: as §1

[4] = tested on: SK-OV-3; assay: NCI cytotoxicity (SRB, 48 h), SK-OV-3; assay type: cell-based, human; conditions: SK-OV-3, ovarian
Experimental: as §1

[5] = tested on: K-562; assay: NCI cytotoxicity (SRB, 48 h), K-562; assay type: cell-based, human; conditions: K-562, leukemia
Experimental: as §1

[6] = tested on: LOX IMVI; assay: NCI cytotoxicity (SRB, 48 h), LOX IMVI; assay type: cell-based, human; conditions: melanoma
Experimental: as §1

[7] = tested on: TK-10; assay: NCI cytotoxicity (SRB, 48 h), TK-10; assay type: cell-based, human; conditions: TK-10, renal
Experimental: as §1

[8] = tested on: BT-549; assay: NCI cytotoxicity (SRB, 48 h), BT-549; assay type: cell-based, human; conditions: BT-549, breast
Experimental: as §1

[9] = tested on: NCI-H23; assay: NCI cytotoxicity (SRB, 48 h), NCI-H23; assay type: cell-based, human; conditions: NCI-H23, non-small cell lung
Experimental: as §1

[10] = tested on: RPMI-8226; assay: NCI cytotoxicity (SRB, 48 h), RPMI-8226; assay type: cell-based, human; conditions: RPMI-8226, leukemia
Experimental: as §1

[11] = tested on: OVCAR-3; assay: NCI cytotoxicity (SRB, 48 h), OVCAR-3; assay type: cell-based, human; conditions: OVCAR-3, ovarian
Experimental: as §1

[12] = tested on: Non-small cell lung cancer cell lines; assay: NCI cytotoxicity (SRB, 48 h), non-small cell lung panel; assay type: cell-based, human; conditions: Non-small-cell lung panel average
Experimental: as §1

[13] = tested on: Ovarian cancer cell lines; assay: NCI cytotoxicity (SRB, 48 h), ovarian panel; assay type: cell-based, human; conditions: Ovarian panel average
Experimental: as §1

[14] = tested on: OVCAR-4; assay: NCI cytotoxicity (SRB, 48 h), OVCAR-4; assay type: cell-based, human; conditions: OVCAR-4, ovarian
Experimental: as §1

[15] = tested on: SK-MEL-2; assay: NCI cytotoxicity (SRB, 48 h), SK-MEL-2; assay type: cell-based, human; conditions: SK-MEL-2, melanoma
Experimental: as §1

[16] = tested on: MALME-3M; assay: NCI cytotoxicity (SRB, 48 h), MALME-3M; assay type: cell-based, human; conditions: melanoma
Experimental: as §1

[17] = tested on: HL-60(TB); assay: NCI cytotoxicity (SRB, 48 h), HL-60(TB); assay type: cell-based, human; conditions: leukemia
Experimental: as §1

[18] = tested on: ACHN; assay: NCI cytotoxicity (SRB, 48 h), ACHN; assay type: cell-based, human; conditions: renal
Experimental: as §1

[19] = tested on: HOP-92; assay: NCI cytotoxicity (SRB, 48 h), HOP-92; assay type: cell-based, human; conditions: HOP-92, non-small cell lung
Experimental: as §1

[20] = tested on: HCT-116; assay: NCI cytotoxicity (SRB, 48 h), HCT-116; assay type: cell-based, human; conditions: HCT-116, colon
Experimental: as §1

[21] = tested on: Leukemia cell lines; assay: NCI cytotoxicity (SRB, 48 h), leukemia panel; assay type: cell-based, human; conditions: Leukemia panel average
Experimental: as §1

[22] = tested on: SNB-75; assay: NCI cytotoxicity (SRB, 48 h), SNB-75; assay type: cell-based, human; conditions: SNB-75, CNS
Experimental: as §1

## COc1cc2c(cc1OCCCCCOc1ccc(-n3c(C)nc4ccccc4c3=O)cc1)N=C[C@@H]1CCCN1C2=O [5d, 7-methoxy-8-{5-[4-(2-methyl-4-oxo-3,4-dihydro-3-quinazolinyl)phenoxy]pentyloxy-}-(11aS)-1,2,3,11a-tetrahydro-5H-pyrrolo[2,1-c][1,4]benzodiazepine-5-one]
[1]; bound over all sixty cell lines, read-out: GI50 value against sixty cell lines in nine cell panels
  GI50: < 1730 nM
[1]; human tumour cell lines
  Log10 GI50 mean graph midpoint (MG_MID): −6.63
  Log10 LC50 mean graph midpoint (MG_MID): −5.21
  Log10 TGI mean graph midpoint (MG_MID): −6.15
[2]
  GI50: 360 nM
[3]
  GI50: 220 nM
[4]
  GI50: 430 nM
[5]
  GI50: 60 nM
[6]
  GI50: 150 nM
[7]
  GI50: 310 nM
[8]
  GI50: 110 nM
[9]
  GI50: 230 nM
[10]
  GI50: 190 nM
[11]
  GI50: 200 nM
[12]
  Log10 GI50: −6.59 mol/L
  Log10 LC50: −5.02
[13]
  Log10 GI50: −6.52 mol/L
  Log10 LC50: −4.79
[14]
  GI50: 370 nM
[15]
  GI50: 420 nM
[16]
  GI50: 230 nM
[17]
  GI50: 180 nM
[18]
  GI50: 290 nM
[19]
  GI50: 350 nM
[20]
  GI50: 150 nM
[21]
  Log10 GI50: −6.85 mol/L
  Log10 LC50: −5.30
[22]
  GI50: 380 nM
